Molecules are shown by their SMILES. Entries after “also recorded” stand apart in the source; their conditions may differ.

One compound from patent publication US20260076948A1, “TREATMENT OF DIABETIC RETINOPATHY USING ENDOTHELIN RECEPTOR ANTAGONISTS” (Perfuse Therapeutics, Inc., priority 2019, published 2026) can be followed below.

For series [1], the system named is laser-induced glaucoma model. Put plainly: Laser-induced non-human primate glaucoma model, ONH blood flow by LSFG after IVT administration. The series is classed as in vivo, rhesus macaque, Macaca Mulatta. Here is the method:
Non-human primates (rhesus macaque, Macaca Mulatta) were obtained for this study. One eye of each animal underwent induction of elevation of intraocular pressure (IOP) by repeated laser photocoagulation of the trabecular meshwork. Imaging sessions were repeated to monitor the optic nerve head (ONH) and retinal structural changes. A study was performed to compare an experimental glaucoma eye and a contralateral healthy eye (control) of three non-human primates in global average mean blur rate (MBR) and MBR change from baseline over time as an index of ONH blood flow in a laser-induced glaucoma model. More specifically, a vehicle control, 0.02 mg/mL of Edonentan, 0.2 mg/mL of Edonentan, or 2.0 mg/mL of Edonentan was intravitreally administered ([…]) to a glaucomatous eye of each of three non-human primates (rhesus macaque, Macaca Mulatta). These graphs show the ONH blood flow in the three non-human primates after IVT administration of a vehicle alone (FIG. 7A, FIG. 7E, and FIG. 7I), 0.02 mg/mL of Edonentan (FIG. 7B, FIG. 7F, and FIG. 7J), 0.2 mg/mL of Edonentan (FIG. 7C, FIG. 7G, and FIG. 7K) or 2.0 mg/mL of Edonentan (FIG. 7D, FIG. 7H, and FIG. 7L). […] In one of the above three non-human primates, an LSFG scan was performed at various selected time points when Edonentan was administered at 2.0 mg/mL.

Series [2] is described as follows: Pharmacokinetics after intravitreal administration in the rabbit. The series is classed as in vivo, rabbits (Oryctolagus cuniculus). The settings on record: IVT, plasma and ocular tissues. As to the method: To determine the pharmacokinetic and safety properties of Edonentan following intravitreal administration in the rabbit, rabbits (Oryctolagus cuniculus) received bilateral intravitreal injections (20 μL injection volume/eye). Following the injections, animals were tranquilized with a ketamine/xylazine cocktail, and then the animals were euthanized with an overdose of sodium pentobarbital (Euthasol). Animals designated for the pharmacokinetic analysis were euthanized at different time points (e.g. 12, 16, 24, 36 and 48 hours). At least 1.0 mL of whole blood was drawn from the marginal ear vein or cardiac puncture (terminal bleed only) into K2EDTA tubes for plasma collection and processed for analytical analysis.
Immediately following euthanasia, the eyes was enucleated. Aqueous humor from both eyes was removed via syringe and snap frozen for analysis. Eyes were dissected when frozen to isolate various ocular tissues and minimize drug diffusion to adjacent tissues. Tissues from left and right eyes were collected in separate vials for analysis. List of tissues collected include plasma and aqueous humor, iris/ciliary body (ICB), retina, vitreous humor and RPE/choroid. The pharmacokinetic properties of intravitreally delivered Edonentan in rabbits are shown in FIG. 9A, FIG. 9B, FIG. 9C and FIG. 9D.

The nature of series [3]: Solubility (pH 2, pH 7, ethyl acetate). Type of series: physicochemical. The text has this: (§1) In the above table, the physicochemical data, e.g., solubility, were obtained following standard protocols known in the field (see, e.g., Reis et al., Mini Rev Med Chem., 2010, 10(11):1071-6; Avdeef et al., Expert Opin Drug Metab Toxicol., 2005, 1(2):325-42; Bharate et al., Comb Chem High Throughput Screen., 2016, 19(6):461-9; and Jain et al., J Pharm Biomed Anal., 2013, 86:11-35.); and the biochemical data, i.e., potency for ETA/ETB, were obtained following the protocols known in the field (see, e.g., Kirkby et al., Br J Pharmacol., 2008, 153(6):1105-19; and Maguire et al., Br J Pharmacol., 2014, 171(24):5555-72.).

The nature of series [4]: Pharmacokinetics after topical or oral administration in the rat. Type of series: in vivo, Brown Norway rats. Here is the method: After the administrations, the animals (N=2) were euthanized at different time points (e.g. 4 and 8 hours) and tissues were collected for analysis. List of tissues collected include plasma, retina/retinal pigment epithelium (RPE)/choroid, vitreous humor and aqueous humor.

For series [5], the system named is ET-1 induced vasospasm. Put plainly: Rabbit ET-1 induced vasospasm model, retinal blood flow (FA, OCT-A). Type of series: in vivo, rabbit (Oryctolagus cuniculus). As to the method: Adult, male Dutch-belted rabbits were given a 20 μl intravitreal injection (IVT) of 0.5 μg of ET-1 followed by a 20 μl intravitreal injection of 10-100 μg Edonentan given 30 min after the ET-1 administration. IOP, optical coherence tomography-angiography (OCT-A), and fluorescein angiograms (FA) were performed at pre-specified time points (30, 45, 60, and 75 min) following ET-1 and Edonentan administration to assess retinal blood flow changes induced by ET-1+/−Edonentan. […] To evaluate the effect of retinal blood flow following intravitreally administered endothelin-1 (ET-1) followed by the antagonist Edonentan in the rabbit, rabbits (Oryctolagus cuniculus) were given a 20 μL intravitreal injection of ET-1 in the left eye followed by a 20 μL intravitreal injection of Edonentan at 2 (or 3) different doses (e.g. 0.1 μg, 0.5 μg, 2.5 μg). The pulse ox, tonometry, optical coherence tomography angiography (OCTA), fluorescein angiography (FA) and retinal leakage scoring were performed for evaluation.

A short description of series [6]: Stability in solid state. The settings on record: 2 h@125° C. The series is classed as physicochemical.
Excerpt: as §1

In the case of `Cc1onc(NS(=O)(=O)c2ccccc2-c2ccc(-c3ncco3)cc2CN(C)C(=O)CC(C)(C)C)c1C` [Edonentan, N-[[2′-[[(4,5-dimethyl-3-isoxazolyl)amino]sulfonyl]-4-(2-oxazolyl)[1,1′-biphenyl]-2-yl]methyl]-N,3,3-trimethylbutanamide], the “ONH blood flow (global average MBR, LSFG), individual animals” value in series [1] (IVT 0.02, 0.2 or 2.0 mg/mL Edonentan, glaucomatous eye, over 6 hours) is “improvement of ONH blood flow in a dose-dependent manner”. Moreover, the “ONH blood flow, aggregate of three non-human primates” value in series [1] (IVT 0.02, 0.2 or 2.0 mg/mL, experimental glaucoma eyes vs control eyes) is given as “does-related increase of ONH blood flow”. Also, in series [2], the “t1/2 after intravitreal delivery” value is given as “longer t1/2”. For the same compound, the “Solubility in Ethyl Acetate, rating in words” value in series [3] (ethyl acetate) is “Good”. Besides, the “Solubility at pH 2” value in series [3] (pH 2) is recorded as under 1 μM. In series [3] (pH 7), the “Solubility at pH 7, comparison in words” value is recorded as “superior to that of A-182086”. Moreover, the “Ocular exposure after topical administration (retina/RPE/choroid, aqueous humor, vitreous humor)” value in series [4] (eye drop 100 μg, 4 and 8 hours) was “detected; also recorded: permeate through cornea/sclera and achieve retina exposure”. Further, the “Detection in the aqueous humor after oral administration” value in series [4] (oral, 17 mg/kg as printed) is “detectable”. The “Detection in the retina/RPE/choroid and vitreous humor after oral administration” value in series [4] (oral, 1.7 and 17 mg/kg as printed) is listed as “detectable”. Also, in series [5] (0.5 μg ET-1 IVT, then 10 μg Edonentan IVT 30 min later), the “ET-1 induced vasospasm / vasoconstriction (fluorescein angiography)” value is reported as “reversed; also recorded: reversal”. Also, the “Time to reversal of the ET-1 effect” value in series [5] (after ET-1, 10 μg Edonentan IVT (60 min after Edonentan)) is recorded as at most 90 min. Also, the “Fluorescein dye velocity as an index of retinal blood flow” value in series [5] (healthy rabbits, 0.5 μg ET-1 and 10 μg antagonist IVT) was “improved to control levels”. Besides, in series [6], the “Stability in Solid State, in words” value is reported as “Stable”.
